Patent US8883797B2, “Metalloenzyme inhibitor compounds” (Viamet Pharmaceuticals, Inc., priority 2011, dated 2014)
≈ marks a conversion by molar mass, not a printed value.

Tests used:
CYP3A4 = CYP3A4 (Homo sapiens (Human), UniProt P08684); assay: biochemical
Procedure: (§1) B Inhibition of Liver Cytochrome P450 Enzymes
(§2) Solutions of each test compound were separately prepared at concentrations of 20000, 6000, 2000, 600, 200, and 60 μM by serial dilution with DMSO:MeCN (50:50 v/v). The individual test compound solutions were then diluted 20-fold with DMSO:MeCN:deionized water (5:5:180 v/v/v) to concentrations of 1000, 300, 100, 30, 10, and 3 μM. Mixtures of isozyme inhibitors (sulfaphenazole, tranylcypromine, and ketoconazole as specific inhibitors of isozymes 2C9, 2C19, and 3A4, respectively) were prepared containing each inhibitor at concentrations of 6000, 2000, 600, 200, 60, 20, 6, and 2 μM by serial dilution with DMSO:ACN (50:50 v/v). […]
(§3) Pooled human liver microsome suspension (20 mg/mL) was diluted with phosphate buffer to obtain a 5 mg/mL suspension. […] Separate stock solutions of each substrate were prepared in DMSO:MeCN (50:50 v/v), mixed, and diluted in phosphate buffer to obtain a single solution containing each substrate at five times its experimentally determined Km concentration. […]
(§4) Substrate solution and microsome suspension were combined in a 1:1 volume ratio, mixed, and distributed to reaction wells of a PCR plate. […] A portion of the supernatant was analyzed by gradient reverse-phase HPLC with detection by electrospray ionization triple quadrupole mass spectrometry in the positive ion mode. […]

CYP2C9 = CYP2C9 (Homo sapiens (Human), UniProt P11712); assay: biochemical
Procedure: as §1, §2, §3, §4

C. albicans = assay: Minimum Inhibitory Concentration (MIC) (C. albicans), CLSI M27-A2; assay type: cell-based; conditions: Candida albicans; about 50% growth reduction; approx. 48 h at 35 °C
Procedure: A. Minimum Inhibitory Concentration (MIC) (C. albicans) Compounds of the present disclosure were assessed for their ability to inhibit the growth of common strains of fungus, C. albicans using a standardized procedure (CLSI M27-A2). Stock solutions of the test compounds and standards were prepared in DMSO at 1,600 μg/mL (C. albicans). Eleven, serial, one-half dilutions of compounds were prepared in 96-well plates in RPMI+MOPS. The assay concentration ranges were 8-0.001 μg/mL (C. albicans). Cell suspensions of C. albicans were prepared and added to each well at concentrations of approximately 3.7×10^3 colony-forming-units per milliliter (cfu/mL). All testing was in duplicate. The inoculated plates were incubated for approximately 48 h at 35±1° C. At the completion of incubation the wells of each plate were evaluated visually for the presence of fungal growth. […] For QC purposes C. krusei isolate ATCC 6258 (4.0×10^3 cfu/mL) was included in the VOR assay.

CYP2C19 = CYP2C19 (Homo sapiens (Human), UniProt P33261); assay: biochemical
CYP2C19, sequence (P33261 whole entry): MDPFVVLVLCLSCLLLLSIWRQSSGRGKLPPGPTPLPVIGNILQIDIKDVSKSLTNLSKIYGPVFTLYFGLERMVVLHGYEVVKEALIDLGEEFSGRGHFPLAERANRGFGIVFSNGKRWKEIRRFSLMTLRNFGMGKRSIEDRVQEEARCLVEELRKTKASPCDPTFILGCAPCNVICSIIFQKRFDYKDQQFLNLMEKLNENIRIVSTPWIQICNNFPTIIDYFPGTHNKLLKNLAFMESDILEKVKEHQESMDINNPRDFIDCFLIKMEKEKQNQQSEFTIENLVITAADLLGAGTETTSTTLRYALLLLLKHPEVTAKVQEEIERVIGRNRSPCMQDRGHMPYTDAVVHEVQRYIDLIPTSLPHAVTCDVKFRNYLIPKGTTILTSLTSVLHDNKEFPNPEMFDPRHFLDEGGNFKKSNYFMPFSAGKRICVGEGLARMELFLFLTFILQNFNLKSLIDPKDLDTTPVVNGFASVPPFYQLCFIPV
Procedure: as §1, §2, §3, §4

CYP2C9, sequence (P11712 whole entry): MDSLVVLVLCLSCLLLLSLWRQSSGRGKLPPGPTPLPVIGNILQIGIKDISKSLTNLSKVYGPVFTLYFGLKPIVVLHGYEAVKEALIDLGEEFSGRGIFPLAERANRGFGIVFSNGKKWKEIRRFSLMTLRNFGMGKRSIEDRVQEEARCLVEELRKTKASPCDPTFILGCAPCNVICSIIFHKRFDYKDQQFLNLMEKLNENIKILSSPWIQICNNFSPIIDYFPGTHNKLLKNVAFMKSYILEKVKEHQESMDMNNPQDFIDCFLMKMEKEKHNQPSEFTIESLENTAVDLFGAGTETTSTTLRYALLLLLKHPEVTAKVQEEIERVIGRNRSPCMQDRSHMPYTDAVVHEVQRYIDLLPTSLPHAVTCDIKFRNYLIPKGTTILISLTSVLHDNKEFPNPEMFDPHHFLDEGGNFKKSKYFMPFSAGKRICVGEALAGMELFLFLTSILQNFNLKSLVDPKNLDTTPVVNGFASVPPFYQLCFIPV
CYP3A4, sequence (P08684 whole entry): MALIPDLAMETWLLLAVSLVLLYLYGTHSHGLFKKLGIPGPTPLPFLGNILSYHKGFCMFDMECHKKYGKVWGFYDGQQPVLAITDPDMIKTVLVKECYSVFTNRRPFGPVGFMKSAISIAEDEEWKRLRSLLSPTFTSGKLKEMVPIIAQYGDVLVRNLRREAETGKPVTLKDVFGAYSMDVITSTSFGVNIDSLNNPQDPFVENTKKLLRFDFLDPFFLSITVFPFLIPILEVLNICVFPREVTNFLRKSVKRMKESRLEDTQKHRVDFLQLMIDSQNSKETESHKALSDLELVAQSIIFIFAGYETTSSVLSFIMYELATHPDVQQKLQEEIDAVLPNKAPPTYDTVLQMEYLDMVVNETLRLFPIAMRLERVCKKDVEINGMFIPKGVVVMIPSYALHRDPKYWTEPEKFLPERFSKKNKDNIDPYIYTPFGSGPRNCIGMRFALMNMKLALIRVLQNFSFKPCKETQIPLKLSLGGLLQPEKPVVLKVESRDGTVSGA

SMILES	IC50 (CYP3A4)	IC50 (CYP2C9)	MIC (C. albicans)	IC50 (CYP2C19)
OC(Cn1cnnn1)(c1ccc(F)cc1F)C(F)(F)c1cnc2cc(Cl)ccc2n1 (stereo not drawn) [Compound 10, 1-(6-Chloroquinoxalin-2-yl)-2-(2,4-difluorophenyl)-1,1-difluoro-3-(1H-tetrazol-1-yl)propan-2-ol]	45 µM	42 µM	0.125 µg/mL (≈ 0.285 µM)	29 µM
OC(Cn1cnnn1)(c1ccc(F)cc1F)C(F)(F)c1ccc2cc(Br)ccc2n1 (stereo not drawn) [Compound 9, 1-(6-Bromoquinolin-2-yl)-2-(2,4-difluorophenyl)-1,1-difluoro-3-(1H-tetrazol-1-yl)propan-2-ol]	11 µM	13 µM	0.016 µg/mL (≈ 0.0332 µM)	12 µM
OC(Cn1cncn1)(Cn1cncn1)c1ccc(F)cc1F [Fluconazole, reference compound]	–	–	0.5 µg/mL (≈ 1.63 µM)	–
